Data from patent publication US8470828B2, “Anellated pyridine compounds” (Hoffmann-La Roche Inc., priority 2010, dated 2013).

Tests used:
human D3 receptor = human D3 receptor (Homo sapiens, UniProt P35462); test: Radioligand binding to cloned human D3 receptor expressed in HEK-293 EBNA cells ([3H]-spiperone)
Method: (§1) HEK293 EBNA cells were transiently transfected with expression plasmids encoding for the human D2 or D3 or for the human 5-HT2A receptor, respectively. The cells were harvested 48 h post-transfection, washed three times with cold PBS and stored at −80° C. prior to use. The pellet was suspended in cold 50 mM Tris-HCl buffer comprising 10 mM EDTA (pH 7.4) and was homogenized with a Polytron (Kinematica A G, Basel, Switzerland) for 20-30 sec at 12.000 rpm. After centrifugation at 48.000×g for 30 min at 4° C., the pellet was resuspended in cold 10 mM Tris-HCl buffer comprising 0.1 mM EDTA (pH 7.4), homogenized, and centrifuged as above. This pellet was further resuspended in a smaller volume of ice cold 10 mM Tris-HCl buffer comprising 0.1 mM EDTA (pH 7.4) and homogenized with a Polytron for 20-30 sec at 12.000 rpm. The protein content of this homogenate was determined with the Bio-Rad (Bradford) Protein Assay (Biorad Laboratories GmbH, München, Germany) according to the instructions of the manufacturer using gamma globulin as the standard. This homogenate was stored at −80° C. in aliquots and thawed immediately prior to use.
(§2) Aliquots of membrane preparations were thawed at RT, resupended in assay buffer (D2, D3: 50 mM Tris-HCl, 120 mM NaCl, 5 mM MgCl2, 1 mM EDTA, 5 mM KCl, 1.5 mM CaCl2, pH=7.4; 5-HT2A: 50 mM Tris-HCl, 10 mM MgCl2, 1 mM EGTA, pH=7.4), homogenized with a Polytron for 20-30 sec at 12.000 rpm and adjusted to a final concentration of approximately 7.5 μg protein/well (D2, D3) and 15 μg protein/well (5-HT2A), respectively.
(§3) The binding affinity (Ki) of the compounds was determined using radioligand binding. Membranes were incubated in a total volume of 200 μl with a fixed concentration of radioligand (final concentration approximately 0.7 nM [^3H]-spiperone for D2, 0.5 nM [^3H]-spiperone for D3, and 1.1 nM [^3H]-ketanserin for 5-HT2A) and ten concentrations of test compound in ranging between 10 μM-0.1 nM for 1 h at RT. At the end of the incubation, the reaction mixtures were filtered on to unifilter 96-well white microplates with bonded GF/C filters (Packard BioScience, Zürich, Switzerland; preincubated for 1 h in 0.1% polyethylenimine (PEI) in assay buffer) with a Filtermate 196 harvester (Packard BioScience) and washed 3 times with cold assay buffer. The nonspecific binding was determined with equally composed reaction mixtures in the presence of 10 μM unlabelled spiperone. Per well 45 μl of Microscint 40 (Perkin Elmer, Schwerzenbach, Switzerland) was added, plates for sealed, shaken for 20 min and counted for 3 min on a Topcount Microplate Scintillation Counter (Can berra Packard S A, Zürich, Switzerland) with quenching correction.
(§4) The CPM value for each duplicate of a concentration of competing compound was averaged (y1), then the % specific binding was calculated according to the equation (((y1−non-specific)/(total binding−non-specific))×100). Graphs were plotted with the % specific binding using XLfit, a curve fitting program that iteratively plots the data using Levenberg-Marquardt algorithm. The single site competition analysis equation used was y=A+((B−A)/(1+((x/C)D))), where y is the % specific binding, A is the minimum y, B is the maximum y, C is the IC50, x is the log 10 of the concentration of the competing compound and D is the slope of the curve (the Hill Coefficient). […] The affinity constant (Ki) was calculated using the Cheng-Prusoff equation Ki=(IC50/1+([L]/Kd), where [L] is the concentration of radioligand and Kd is the dissociation constant of the radioligand at the receptor as determined by the saturation isotherm.

human 5-HT2A receptor = human 5-HT2A receptor (Homo sapiens, UniProt P28223); test: Radioligand binding to cloned human 5-HT2A receptor expressed in HEK-293 EBNA cells ([3H]-ketanserin)
Method: as §1, §2, §3, §4

human D2 receptor = target: T1, human D2 receptor (Homo sapiens, UniProt P14416); test: Radioligand binding to cloned human D2 receptor expressed in HEK-293 EBNA cells ([3H]-spiperone); details: HEK293 EBNA cell membranes, approximately 0.7 nM [3H]-spiperone, 1 h at RT
T1 construct: expressed in transfected cells; host or cells: HEK293 EBNA cells, transient transfection; membrane preparation
T1 sequence (P14416 whole entry): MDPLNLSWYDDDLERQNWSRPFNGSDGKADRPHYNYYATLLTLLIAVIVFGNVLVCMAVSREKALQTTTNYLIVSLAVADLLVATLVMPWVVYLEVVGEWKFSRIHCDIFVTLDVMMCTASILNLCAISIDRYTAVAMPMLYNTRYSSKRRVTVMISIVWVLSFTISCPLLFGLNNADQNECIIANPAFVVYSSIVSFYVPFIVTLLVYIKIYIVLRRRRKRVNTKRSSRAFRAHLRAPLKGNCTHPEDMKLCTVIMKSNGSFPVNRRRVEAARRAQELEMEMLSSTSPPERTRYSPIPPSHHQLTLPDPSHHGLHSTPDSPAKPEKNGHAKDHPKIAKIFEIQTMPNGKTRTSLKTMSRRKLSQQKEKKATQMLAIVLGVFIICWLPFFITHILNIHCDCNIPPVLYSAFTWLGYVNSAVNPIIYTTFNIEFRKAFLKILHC
Method: as §1, §2, §3, §4

human D3 receptor, sequence (P35462 whole entry): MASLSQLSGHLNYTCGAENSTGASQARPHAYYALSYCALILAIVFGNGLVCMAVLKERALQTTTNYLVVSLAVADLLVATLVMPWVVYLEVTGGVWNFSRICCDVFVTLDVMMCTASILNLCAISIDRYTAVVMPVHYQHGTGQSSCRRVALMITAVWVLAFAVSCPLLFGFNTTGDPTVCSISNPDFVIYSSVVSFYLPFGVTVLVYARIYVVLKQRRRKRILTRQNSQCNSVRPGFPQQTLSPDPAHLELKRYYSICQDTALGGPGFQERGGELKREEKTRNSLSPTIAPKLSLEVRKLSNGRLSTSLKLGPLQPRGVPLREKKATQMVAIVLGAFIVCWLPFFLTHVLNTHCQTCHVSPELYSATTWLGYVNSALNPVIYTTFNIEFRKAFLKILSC
human 5-HT2A receptor, sequence (P28223 whole entry): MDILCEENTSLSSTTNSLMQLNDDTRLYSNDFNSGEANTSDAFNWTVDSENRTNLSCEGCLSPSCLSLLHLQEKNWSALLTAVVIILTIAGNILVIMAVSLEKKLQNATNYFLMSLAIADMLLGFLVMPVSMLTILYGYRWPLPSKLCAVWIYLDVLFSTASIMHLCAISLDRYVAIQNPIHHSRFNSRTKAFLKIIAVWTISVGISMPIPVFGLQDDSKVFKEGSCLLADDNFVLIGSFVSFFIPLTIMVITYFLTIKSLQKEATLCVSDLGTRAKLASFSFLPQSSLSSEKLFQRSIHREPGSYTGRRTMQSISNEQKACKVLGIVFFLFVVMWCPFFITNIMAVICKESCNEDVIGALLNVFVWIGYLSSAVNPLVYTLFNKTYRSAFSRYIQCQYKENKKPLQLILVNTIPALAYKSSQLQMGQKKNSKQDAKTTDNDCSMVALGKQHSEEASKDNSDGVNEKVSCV

Ki (human D3 receptor) | Ki (human 5-HT2A receptor) | melting point | Ki (human D2 receptor) | D2 Ki (human D2 receptor) | Compound
0.014 µM | 0.0496 µM | 139 °C | 0.904 µM |  | CC(C)(O)CC(=O)N[C@H]1CC[C@H](CCN2CCN(c3nccc4c3OCC4)CC2)CC1 [Example 46, trans-N-(4-{2-[4-(2,3-Dihydro-furo[2,3-c]pyridin-7-yl)-piperazin-1-yl]-ethyl}-cyclohexyl)-3-hydroxy-3-methyl-butyramide]
0.015 µM | 0.089 µM | 214.5 °C | 0.943 µM |  | O=C(C[C@@H](O)C(F)(F)F)N[C@H]1CC[C@H](CCN2CCN(c3nccc4c3OCC4)CC2)CC1 [Example 47, trans-(R)—N-(4-{2-[4-(2,3-Dihydro-furo[2,3-c]pyridin-7-yl)-piperazin-1-yl]-ethyl}-cyclohexyl)-4,4,4-trifluoro-3-hydroxy-butyramide]
0.0182 µM | 0.0568 µM | 217 °C | 1.09 µM |  | CC[C@H](O)CC(=O)N[C@H]1CC[C@H](CCN2CCN(c3nccc4c3OCC4)CC2)CC1 [Example 48, trans-(S)-3-Hydroxy-pentanoic acid (4-{2-[4-(2,3-dihydro-furo[2,3-c]pyridin-7-yl)-piperazin-1-yl]-ethyl}-cyclohexyl)-amide]
0.0104 µM | 0.0823 µM | 257 °C | 0.723 µM |  | O=C(CCO)N[C@H]1CC[C@H](CCN2CCN(c3nccc4c3OCC4)CC2)CC1 [Example 49, trans-N-(4-{2-[4-(2,3-Dihydro-furo[2,3-c]pyridin-7-yl)-piperazin-1-yl]-ethyl}-cyclohexyl)-3-hydroxy-propionamide]
0.0295 µM | 0.0457 µM | 198.5 °C | 0.551 µM |  | O=C(N[C@H]1CC[C@H](CCN2CCN(c3nccc4c3OCC4)CC2)CC1)C(F)(F)F [Example 50, trans-N-(4-{2-[4-(2,3-Dihydro-furo[2,3-c]pyridin-7-yl)-piperazin-1-yl]-ethyl}-cyclohexyl)-2,2,2-trifluoro-acetamide]
0.0104 µM | 0.0503 µM | 168 °C | 0.726 µM |  | CCCCC(=O)N[C@H]1CC[C@H](CCN2CCN(c3nccc4c3OCC4)CC2)CC1 [Example 51, Pentanoic acid trans-(4-{2-[4-(2,3-dihydro-furo[2,3-c]pyridin-7-yl)-piperazin-1-yl]-ethyl}-cyclohexyl)-amide]
0.0134 µM | 0.044 µM | 199 °C | 0.948 µM |  | CO[C@H]1CC[C@H](CC(=O)N[C@H]2CC[C@H](CCN3CCN(c4nccc5c4OCC5)CC3)CC2)C1 [Example 52, trans-N-(4-{2-[4-(2,3-Dihydro-furo[2,3-c]pyridin-7-yl)-piperazin-1-yl]-ethyl}-cyclohexyl)-2-((1S,3S)-3-methoxy-cyclopentyl)-acetamide]
0.0231 µM | 0.0702 µM | 153.5 °C | 1.11 µM |  | O=CN[C@H]1CC[C@H](CCN2CCN(c3nccc4c3OCC4)CC2)CC1 [Example 53, trans-N-(4-{2-[4-(2,3-Dihydro-furo[2,3-c]pyridin-7-yl)-piperazin-1-yl]-ethyl}-cyclohexyl)-formamide]
0.0126 µM | 0.0667 µM | 251.5 °C | 2.39 µM |  | O=C(N[C@H]1CC[C@H](CCN2CCN(c3nccc4c3OCC4)CC2)CC1)c1ccc(Cl)cc1 [Example 54, trans-4-Chloro-N-(4-{2-[4-(2,3-dihydro-furo[2,3-c]pyridin-7-yl)-piperazin-1-yl]-ethyl}-cyclohexyl)-benzamide]
0.0515 µM | 0.0787 µM | 242.5 °C |  | inactive | O=C(N[C@H]1CC[C@H](CCN2CCN(c3nccc4c3OCC4)CC2)CC1)c1ccc(C(F)(F)F)cc1 [Example 55, trans-N-(4-{2-[4-(2,3-Dihydro-furo[2,3-c]pyridin-7-yl)-piperazin-1-yl]-ethyl}-cyclohexyl)-4-trifluoromethyl-benzamide]
0.0795 µM | 0.0674 µM | 183 °C | 1.93 µM |  | CC(C)(C)c1ccc(C(=O)N[C@H]2CC[C@H](CCN3CCN(c4nccc5c4OCC5)CC3)CC2)cc1 [Example 56, trans-4-tert-Butyl-N-(4-{2-[4-(2,3-dihydro-furo[2,3-c]pyridin-7-yl)-piperazin-1-yl]-ethyl}-cyclohexyl)-benzamide]
0.0427 µM | 0.0506 µM | 182.5 °C | 1.76 µM |  | O=C(N[C@H]1CC[C@H](CCN2CCN(c3nccc4c3OCC4)CC2)CC1)c1ccc(N2CCCCC2)cc1 [Example 57, trans-N-(4-{2-[4-(2,3-Dihydro-furo[2,3-c]pyridin-7-yl)-piperazin-1-yl]-ethyl}-cyclohexyl)-4-piperidin-1-yl-benzamide]
0.0447 µM | 0.00848 µM | 241 °C | 1.13 µM |  | CC(C)(O)C(=O)N[C@H]1CC[C@H](CCN2CCN(c3nccc4c3OCC4)CC2)CC1 [Example 59, trans-N-(4-{2-[4-(2,3-Dihydro-furo[2,3-c]pyridin-7-yl)-piperazin-1-yl]-ethyl}-cyclohexyl)-2-hydroxy-2-methyl-propionamide]
0.00732 µM | 0.023 µM | 213.5 °C | 0.348 µM |  | O=C(N[C@H]1CC[C@H](CCN2CCN(c3nccc4c3OCC4)CC2)CC1)c1ccc2c(c1)OCO2 [Example 60, Benzo[1,3]dioxole-5-carboxylic acid trans-(4-{2-[4-(2,3-dihydro-furo[2,3-c]pyridin-7-yl)-piperazin-1-yl]-ethyl}-cyclohexyl)-amide]
0.0261 µM | 0.0486 µM | 199 °C | 0.488 µM |  | Cc1cc(C(=O)N[C@H]2CC[C@H](CCN3CCN(c4nccc5c4OCC5)CC3)CC2)on1 [Example 61, 3-Methyl-isoxazole-5-carboxylic acid trans-(4-{2-[4-(2,3-dihydro-furo[2,3-c]pyridin-7-yl)-piperazin-1-yl]-ethyl}-cyclohexyl)-amide]
0.00722 µM | 0.0382 µM | 218 °C | 1.28 µM |  | COC(CC(=O)N[C@H]1CC[C@H](CCN2CCN(c3nccc4c3OCC4)CC2)CC1)OC [Example 62, trans-N-(4-{2-[4-(2,3-Dihydro-furo[2,3-c]pyridin-7-yl)-piperazin-1-yl]-ethyl}-cyclohexyl)-3,3-dimethoxy-propionamide]
0.0221 µM | 0.0353 µM | 204.5 °C | 1.92 µM |  | COC(CCC(=O)N[C@H]1CC[C@H](CCN2CCN(c3nccc4c3OCC4)CC2)CC1)OC [Example 63, trans-N-(4-{2-[4-(2,3-Dihydro-furo[2,3-c]pyridin-7-yl)-piperazin-1-yl]-ethyl}-cyclohexyl)-4,4-dimethoxy-butyramide]
0.00443 µM | 0.0544 µM | 227.5 °C |  | inactive | Cc1nc(-c2cccc(C(=O)N[C@H]3CC[C@H](CCN4CCN(c5nccc6c5OCC6)CC4)CC3)c2)no1 [Example 64, trans-N-(4-{2-[4-(2,3-Dihydro-furo[2,3-c]pyridin-7-yl)-piperazin-1-yl]-ethyl}-cyclohexyl)-3-(5-methyl-[1,2,4]oxadiazol-3-yl)-benzamide]
